Test results from US10716771B2, “Pharmaceutical composition for preventing or treating immune diseases or inflammatory diseases, containing biguanide derivative compound as active ingredient” (THE CATHOLIC UNIVERSITY OF KOREA INDUSTRY-ACADEMIC …, priority 2013, dated 2020).

Columns and labels:
[1] = tested on: IL-17; test: IL-17 sandwich ELISA, Example 8-3; format: cell-based, mouse; details: incubated supernatant
Experimental: (§1) In order to evaluate an arthritis therapeutic effect of the biguanide derivative compound of the present invention, in a rheumatoid arthritis animal model, cytotoxicity, generation of autoantibody, expression of inflammatory cytokines and regulatory T cells (Treg), and osteoclast differentiation were measured. Like Examples, metformin was used as a control group. In order to evaluate an effect of suppressing the expression of the inflammatory cytokine of the biguanide derivative compound of the present invention, the incubated supernatant was collected and the expression degrees of IL-17 and TNF-α of a mouse were examined by using a sandwich ELISA. […] of a monoclonal anti-IL-17 or anti-TNF-α was reacted in a 96-well plate at 4° C. overnight and then a non-specific binding was blocked by a blocking solution (1% BSA/PBST) after the reaction. An IL-17 or TNF-α recombinant was continuously diluted by 1/2 to be used as a standard, added with the cell-incubated supernatant, and reacted at room temperature for 2 hrs. Thereafter, biotinylated anti-IL-17 or anti-TNF-α was added and reacted at room temperature for 2 hrs, washed four times after the reaction, diluted with a diluted ExtraAvidin-alkaline phosphatase conjugate, and reacted at room temperature for 2 hrs. After the reaction, a PNPP/DEA was added and colored, and absorbance was measured at a wavelength of 405 nm.

[2] = tested on: Foxp3+ Treg cells; test: Regulatory T cell (Treg) expression by flow cytometry, Example 8-3; format: cell-based, mouse; details: anti-CD4, anti-CD25, anti Foxp3
Experimental: In order to evaluate an arthritis therapeutic effect of the biguanide derivative compound of the present invention, in a rheumatoid arthritis animal model, cytotoxicity, generation of autoantibody, expression of inflammatory cytokines and regulatory T cells (Treg), and osteoclast differentiation were measured. Like Examples, metformin was used as a control group. Further, in order to examine whether the biguanide derivative compound of the present invention activates the expression of regulatory T cells (Treg), the incubated cells were flow-cytometry by using anti-CD4-percp, anti-CD25-APC, and anti Foxp3-Pe fluorescent antibodies (ab), and as a result, it was verified that SD-196, 216 and 217 activated the Foxp3+ Treg cells (see FIG. 10).

[3] = Cytotoxicity (MTT) in rheumatoid arthritis disease model with metabolic syndrome; format: cell-based
Experimental: (§2) In order to examine cytotoxicity of the biguanide derivative compound of the present invention, an MTT assay was performed. Cells were isolated from the spleen in a normal mouse group and the isolated cells were incubated for 3 days in the concentration of 0.5 μg/ml of anti-CD3 or 100 ng/ml of LPS 100, and metformin, SD-196, SD-216 or SD-217 was treated for each concentration and incubated for 3 days.
Further, the incubated cells were analyzed by flow cytometry using anti-CD4-percp and anti-IL-17-Pe fluorescent antibodies, and as a result, it was verified that SD-196, 216 and 217 suppressed the activity of Th17 and simultaneously activated the expression of the regulatory T cells (Treg) (see FIG. 13).

[4] = tested on: IL-17; test: IL-17 expression in lupus animal model; format: cell-based
Experimental: as §1, with “In” for “In order to evaluate an arthritis therapeutic effect of the biguanide derivative compound of the present invention, in a rheumatoid arthritis animal model, cytotoxicity, generation of autoantibody, expression of inflammatory cytokines and regulatory T cells (Treg), and osteoclast differentiation were measured. Like Examples, metformin was used as a control group. In”
In order to evaluate a lupus therapeutic effect of the biguanide derivative compound of the present invention, in a lupus animal model, cytotoxicity, autoantibody generation, generation of inflammatory cytokines, and Th17 regulation were measured by the same method as Example 8.

[5] = tested on: normal cells; test: Cytotoxicity (MTT) in normal (human) cells; format: cell-based
Experimental: as §2, with “days. […] In order to evaluate a development possibility of the biguanide derivative compound of the present invention as an agent for preventing or treating immune diseases, effects of modulating cytotoxicity and generation of inflammatory cytokines by targeting normal cells were measured by the same method as Example 8.” for “days.”

[6] = tested on: TNF-α; test: TNF-α expression in normal (human) cells; format: cell-based; details: compared with metformin
Experimental: as §1, with “In” for “In order to evaluate an arthritis therapeutic effect of the biguanide derivative compound of the present invention, in a rheumatoid arthritis animal model, cytotoxicity, generation of autoantibody, expression of inflammatory cytokines and regulatory T cells (Treg), and osteoclast differentiation were measured. Like Examples, metformin was used as a control group. In”
In order to evaluate a development possibility of the biguanide derivative compound of the present invention as an agent for preventing or treating immune diseases, effects of modulating cytotoxicity and generation of inflammatory cytokines by targeting normal cells were measured by the same method as Example 8.

Compound | IL-17 inflammatory cytokine expression [1] | Foxp3+ Treg cells [2] | cytotoxicity [3] | expression of IL-17 [4] | cytotoxicity [5] | expression of TNF-α [6]
CC(C)NC(=N)NC(=N)N [SD-000196, 1-isopropylbiguanide] | significantly suppressed | activated | did not have the cytotoxicity | suppressed |  | 
NC(N)=N/C(N)=N/c1cccc(F)c1 [SD-000216, 1-(3-fluorophenyl)biguanide] | significantly suppressed | activated | did not have the cytotoxicity | suppressed | no cytotoxicity | suppressed
N=C(N)NC(=N)Nc1ccc(F)cc1F [SD-000217, 1-(2,4-difluorophenyl)biguanide] | significantly suppressed | activated | did not have the cytotoxicity | suppressed | no cytotoxicity | suppressed
